The values that follow are results of earlier work, collected in US12251425B2, “Sustained-release lipid preformulation and pharmaceutical composition for sustained-release injection in form of lipid solution containing same” (IMDPHARM INC., priority 2019, dated 2025).

The conditions of the data set: 25° C.

Regarding sorbitan monooleate, the viscosity entry was “about 1000 mPa·s”.
